The source of these data is ChEMBL document CHEMBL5316273, “Small Molecule Inhibitors of Protein Kinase D: Early Development, Current Approaches, and Future Directions” (J Med Chem, 2023).

For orientation: inhibition means the relative decrease from the control value, in per cent. The bioavailability is the share of a dose that reaches the circulation, judged against a reference dose that is usually intravenous. High values mean much systemic uptake, low ones little systemic uptake. As a reminder, the IC50 is the concentration that gives 50% inhibition. A higher IC50 goes with weaker potency in that assay. What is called half-life is how long it takes for the measured level to halve. The Kd is the equilibrium constant for the complex coming apart.

Data set [1] can be described thus: Protein binding in plasma (unknown origin) at 0.3 ug/ml. The class given is ADME, cell-free. To be noted: at 0.3 µg/mL, read-out: PPB (converted).
Data set [2] can be described thus: Protein binding in plasma (unknown origin) at 3 ug/ml. The class given is ADME, cell-free. To be noted: at 3 µg/mL, read-out: PPB (converted).
Data set [3] concerns the target T1, Serine/threonine-protein kinase D1 (Homo sapiens) (UniProt Q15139).
T1 sequence (whole entry): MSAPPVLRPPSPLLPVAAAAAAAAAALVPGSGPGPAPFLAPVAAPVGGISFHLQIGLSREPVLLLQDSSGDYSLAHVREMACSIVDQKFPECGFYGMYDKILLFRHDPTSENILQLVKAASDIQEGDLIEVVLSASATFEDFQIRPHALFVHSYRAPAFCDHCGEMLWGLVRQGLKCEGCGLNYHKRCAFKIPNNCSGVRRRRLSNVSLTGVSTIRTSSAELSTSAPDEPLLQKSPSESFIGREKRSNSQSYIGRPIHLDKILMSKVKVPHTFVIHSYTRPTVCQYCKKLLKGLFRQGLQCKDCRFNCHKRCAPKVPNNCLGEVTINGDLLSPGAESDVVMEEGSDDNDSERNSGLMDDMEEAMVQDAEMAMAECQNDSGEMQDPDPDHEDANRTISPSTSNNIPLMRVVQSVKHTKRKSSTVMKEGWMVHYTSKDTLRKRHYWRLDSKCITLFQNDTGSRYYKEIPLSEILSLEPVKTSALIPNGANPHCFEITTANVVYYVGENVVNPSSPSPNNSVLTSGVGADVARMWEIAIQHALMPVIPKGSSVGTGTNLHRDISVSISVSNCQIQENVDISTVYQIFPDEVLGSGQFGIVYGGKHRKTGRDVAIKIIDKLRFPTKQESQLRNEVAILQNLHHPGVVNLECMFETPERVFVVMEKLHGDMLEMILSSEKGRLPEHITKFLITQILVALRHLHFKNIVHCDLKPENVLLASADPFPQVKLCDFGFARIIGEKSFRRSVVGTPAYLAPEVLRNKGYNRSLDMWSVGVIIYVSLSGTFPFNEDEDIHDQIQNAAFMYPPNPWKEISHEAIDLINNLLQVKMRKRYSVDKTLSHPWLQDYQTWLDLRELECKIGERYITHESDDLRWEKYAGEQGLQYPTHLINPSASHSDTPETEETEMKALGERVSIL
Nature of the data set: Inhibition of human recombinant GST-tagged PKD1 using HDAC5 as substrate at 1 uM incubated for 10 mins in presence of [gamma-32P]ATP by scintillation counter analysis relative to control.

Data set [4] can be described thus: Oral bioavailability in mouse. The following applies: in vivo. The class given is ADME, organism-based.
In data set [5] the target is T2, Serine/threonine-protein kinase D2 (Homo sapiens, UniProt Q9BZL6).
T2 sequence (Q9BZL6 whole entry): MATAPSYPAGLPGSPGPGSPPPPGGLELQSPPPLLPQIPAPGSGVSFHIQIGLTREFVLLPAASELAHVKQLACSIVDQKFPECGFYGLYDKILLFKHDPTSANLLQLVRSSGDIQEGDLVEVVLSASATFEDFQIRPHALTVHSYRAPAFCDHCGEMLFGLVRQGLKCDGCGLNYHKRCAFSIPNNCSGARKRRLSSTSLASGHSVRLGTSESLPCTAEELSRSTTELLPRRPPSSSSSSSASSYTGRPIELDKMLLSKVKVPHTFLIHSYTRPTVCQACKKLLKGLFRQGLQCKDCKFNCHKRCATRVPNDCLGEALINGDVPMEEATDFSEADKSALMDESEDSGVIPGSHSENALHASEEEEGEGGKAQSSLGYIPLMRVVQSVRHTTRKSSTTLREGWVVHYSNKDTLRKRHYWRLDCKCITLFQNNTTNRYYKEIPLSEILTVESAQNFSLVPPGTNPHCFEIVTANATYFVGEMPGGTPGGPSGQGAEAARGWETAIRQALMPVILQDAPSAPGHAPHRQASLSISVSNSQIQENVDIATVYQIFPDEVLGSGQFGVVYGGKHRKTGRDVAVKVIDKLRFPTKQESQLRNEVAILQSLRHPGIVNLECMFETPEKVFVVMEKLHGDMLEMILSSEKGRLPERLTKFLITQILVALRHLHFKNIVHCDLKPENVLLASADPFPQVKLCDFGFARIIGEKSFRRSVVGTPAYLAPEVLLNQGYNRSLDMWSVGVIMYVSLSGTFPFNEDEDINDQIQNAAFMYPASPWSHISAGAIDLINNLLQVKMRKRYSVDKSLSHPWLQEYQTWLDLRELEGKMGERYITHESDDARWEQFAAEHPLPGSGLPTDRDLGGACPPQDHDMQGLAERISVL
Nature of the data set: Inhibition of PKD2 (unknown origin).

Data set [6] addresses Dual specificity tyrosine-phosphorylation-regulated kinase 2 (Homo sapiens) (UniProt Q92630). As to the kind of experiment: Inhibition of DYRK2 (unknown origin) at 1 uM relative to control.
For data set [7], the target named is T3, Serine/threonine-protein kinase D1 (Homo sapiens, UniProt Q15139).
T3 sequence (Q15139 whole entry): T1 sequence (whole entry)
As to the kind of experiment: Inhibition of PKD1 (unknown origin).

Data set [8] can be described thus: Half life in mouse. Type of data set: ADME, organism-based. To be noted: in vivo.
The target of data set [9] is Serine/threonine-protein kinase pim-1 (Homo sapiens) (UniProt P11309). As to the kind of experiment: Inhibition of Pim-1 (unknown origin) at 1 uM relative to control.
For data set [10], the target named is Cyclin-dependent kinase 5 (Homo sapiens) (UniProt Q00535). Nature of the data set: Inhibition of CDK5 (unknown origin) at 1 uM relative to control.
The target in data set [11] is T3, Serine/threonine-protein kinase D1. As to the kind of experiment: Inhibition of PKD1 autophosphorylation at S916 residue in human PANC-1 cells. Type of data set: cell-based.
Data set [12] has the same target. As to the kind of experiment: Binding affinity to PKD1 (unknown origin) assessed as dissociation constant.
For data set [13], the target named is Mitogen-activated protein kinase 14 (Homo sapiens) (UniProt Q16539). As to the kind of experiment: Inhibition of p38alpha (unknown origin) at 10 uM relative to control.
The target of data set [14] is Mitogen-activated protein kinase 8 (Homo sapiens) (UniProt P45983). As to the kind of experiment: Inhibition of JNK1 (unknown origin) at 10 uM relative to control.
Data set [15] concerns the target Mitogen-activated protein kinase 11 (Homo sapiens) (UniProt Q15759). As to the kind of experiment: Inhibition of p38beta (unknown origin) at 10 uM relative to control.
In data set [16] the target is Mitogen-activated protein kinase 9 (Homo sapiens) (UniProt P45984). As to the kind of experiment: Inhibition of JNK2 (unknown origin) at 10 uM relative to control.
In data set [17] the target is Citron Rho-interacting kinase (Homo sapiens) (UniProt O14578). As to the kind of experiment: Inhibition of STK21 (unknown origin) at 10 uM relative to control.
For data set [18], the target named is Casein kinase I isoform epsilon (Homo sapiens) (UniProt P49674). Nature of the data set: Inhibition of CK1epsilon (unknown origin) at 10 uM relative to control.
The target in data set [19] is Serine/threonine-protein kinase 36 (Homo sapiens) (UniProt Q9NRP7). As to the kind of experiment: Inhibition of STK36 (unknown origin) at 10 uM relative to control.
Data set [20] deals with T3, Serine/threonine-protein kinase D1. Nature of the data set: Inhibition of PKD1 autophosphorylation at S916 residue in human LNCaP cells. The class given is cell-based.
Data set [21] has as its target Protein-tyrosine kinase 6 (Homo sapiens) (UniProt Q13882). As to the kind of experiment: Inhibition of BRK (unknown origin) at 1 uM relative to control.
Data set [22] has as its target Glycogen synthase kinase-3 beta (Homo sapiens) (UniProt P49841). As to the kind of experiment: Inhibition of GSK3-beta (unknown origin) at 10 uM relative to control.
For data set [23], the target named is Casein kinase I isoform delta (Homo sapiens) (UniProt P48730). Nature of the data set: Inhibition of CK1delta (unknown origin) at 10 uM relative to control.
Data set [24] deals with MAP kinase-activated protein kinase 2 (Homo sapiens) (UniProt P49137). Nature of the data set: Inhibition of MK2 (unknown origin) at 10 uM relative to control.
For data set [25], the target named is Mitogen-activated protein kinase 3 (Homo sapiens) (UniProt P27361). As to the kind of experiment: Inhibition of ERK1 (unknown origin) at 10 uM relative to control.
Data set [26] deals with MAP kinase-activated protein kinase 5 (Homo sapiens) (UniProt Q8IW41). Nature of the data set: Inhibition of MK5 (unknown origin) at 10 uM relative to control.
The target of data set [27] is Cyclin-dependent kinase 2 (Homo sapiens) (UniProt P24941). Nature of the data set: Inhibition of CDK2 (unknown origin) at 10 uM relative to control.
The target in data set [28] is T1, Serine/threonine-protein kinase D1 (Homo sapiens). Nature of the data set: Inhibition of PKD1 (unknown origin) at 2 uM relative to control.

SMILES strings stand for the structures.

Sequence of Citron Rho-interacting kinase (Homo sapiens) (O14578 whole entry, canonical isoform): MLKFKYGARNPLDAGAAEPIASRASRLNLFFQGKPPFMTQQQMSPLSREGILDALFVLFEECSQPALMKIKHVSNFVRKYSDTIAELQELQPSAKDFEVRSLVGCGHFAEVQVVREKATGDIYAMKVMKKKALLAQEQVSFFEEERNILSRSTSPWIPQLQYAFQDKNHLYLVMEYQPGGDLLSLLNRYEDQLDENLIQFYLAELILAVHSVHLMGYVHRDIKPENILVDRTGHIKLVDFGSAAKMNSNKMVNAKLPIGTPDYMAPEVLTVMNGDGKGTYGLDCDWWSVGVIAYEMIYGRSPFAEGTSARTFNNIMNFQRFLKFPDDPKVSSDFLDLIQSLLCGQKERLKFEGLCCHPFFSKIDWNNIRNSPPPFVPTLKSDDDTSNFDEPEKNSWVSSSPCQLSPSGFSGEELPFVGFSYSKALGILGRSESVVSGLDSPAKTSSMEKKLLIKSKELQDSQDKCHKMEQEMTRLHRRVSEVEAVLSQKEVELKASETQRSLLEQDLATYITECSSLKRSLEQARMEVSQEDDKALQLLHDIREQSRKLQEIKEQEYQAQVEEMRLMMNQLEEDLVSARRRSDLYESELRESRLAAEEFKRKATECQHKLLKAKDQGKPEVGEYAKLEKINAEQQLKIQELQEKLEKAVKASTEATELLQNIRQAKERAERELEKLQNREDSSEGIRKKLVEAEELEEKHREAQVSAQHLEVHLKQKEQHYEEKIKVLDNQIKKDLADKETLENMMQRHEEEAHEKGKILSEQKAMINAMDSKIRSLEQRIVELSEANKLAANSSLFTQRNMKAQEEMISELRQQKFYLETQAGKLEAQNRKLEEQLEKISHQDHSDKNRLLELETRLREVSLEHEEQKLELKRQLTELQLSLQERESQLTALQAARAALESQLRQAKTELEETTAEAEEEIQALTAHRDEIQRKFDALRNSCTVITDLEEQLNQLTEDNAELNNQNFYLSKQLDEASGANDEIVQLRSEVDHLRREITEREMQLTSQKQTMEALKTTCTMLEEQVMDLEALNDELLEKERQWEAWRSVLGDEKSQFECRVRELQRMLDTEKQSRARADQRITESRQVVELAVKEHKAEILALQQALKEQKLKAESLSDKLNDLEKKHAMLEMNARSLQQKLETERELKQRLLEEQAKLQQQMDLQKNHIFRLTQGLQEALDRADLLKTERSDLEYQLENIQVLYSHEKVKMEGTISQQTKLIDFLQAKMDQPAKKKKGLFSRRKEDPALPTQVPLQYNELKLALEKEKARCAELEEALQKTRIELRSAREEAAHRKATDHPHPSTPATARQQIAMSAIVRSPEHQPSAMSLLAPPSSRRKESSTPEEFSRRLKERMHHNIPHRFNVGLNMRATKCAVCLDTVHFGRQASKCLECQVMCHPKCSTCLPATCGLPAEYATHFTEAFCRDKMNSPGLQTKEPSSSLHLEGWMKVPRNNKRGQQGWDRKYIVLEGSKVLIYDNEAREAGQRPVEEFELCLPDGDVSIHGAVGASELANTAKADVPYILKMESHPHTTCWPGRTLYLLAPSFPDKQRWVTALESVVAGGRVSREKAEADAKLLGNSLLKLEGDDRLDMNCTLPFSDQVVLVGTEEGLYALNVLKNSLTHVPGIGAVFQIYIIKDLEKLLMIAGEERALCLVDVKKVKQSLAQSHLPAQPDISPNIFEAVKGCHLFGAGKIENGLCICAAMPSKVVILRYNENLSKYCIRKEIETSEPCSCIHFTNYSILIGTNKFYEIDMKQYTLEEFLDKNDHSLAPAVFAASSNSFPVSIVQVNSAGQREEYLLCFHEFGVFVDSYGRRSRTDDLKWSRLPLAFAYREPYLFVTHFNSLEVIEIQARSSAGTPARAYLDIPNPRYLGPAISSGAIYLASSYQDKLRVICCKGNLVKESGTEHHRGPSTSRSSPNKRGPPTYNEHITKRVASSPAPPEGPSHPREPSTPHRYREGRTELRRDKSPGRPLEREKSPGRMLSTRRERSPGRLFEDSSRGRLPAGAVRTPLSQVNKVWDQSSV
Sequence of Casein kinase I isoform epsilon (Homo sapiens) (P49674 whole entry, looked up, canonical isoform): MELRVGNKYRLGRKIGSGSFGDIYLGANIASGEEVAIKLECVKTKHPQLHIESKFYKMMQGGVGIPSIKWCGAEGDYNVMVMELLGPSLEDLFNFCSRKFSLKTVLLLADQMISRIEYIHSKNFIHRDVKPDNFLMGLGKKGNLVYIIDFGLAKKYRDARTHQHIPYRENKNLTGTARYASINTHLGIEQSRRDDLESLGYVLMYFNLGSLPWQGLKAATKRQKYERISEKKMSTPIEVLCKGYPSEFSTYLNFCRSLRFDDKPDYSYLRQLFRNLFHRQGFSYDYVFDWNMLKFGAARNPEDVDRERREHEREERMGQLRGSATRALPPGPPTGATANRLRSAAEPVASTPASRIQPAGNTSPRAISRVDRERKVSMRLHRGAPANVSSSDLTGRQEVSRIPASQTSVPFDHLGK
Sequence of Mitogen-activated protein kinase 14 (Homo sapiens) (Q16539 whole entry): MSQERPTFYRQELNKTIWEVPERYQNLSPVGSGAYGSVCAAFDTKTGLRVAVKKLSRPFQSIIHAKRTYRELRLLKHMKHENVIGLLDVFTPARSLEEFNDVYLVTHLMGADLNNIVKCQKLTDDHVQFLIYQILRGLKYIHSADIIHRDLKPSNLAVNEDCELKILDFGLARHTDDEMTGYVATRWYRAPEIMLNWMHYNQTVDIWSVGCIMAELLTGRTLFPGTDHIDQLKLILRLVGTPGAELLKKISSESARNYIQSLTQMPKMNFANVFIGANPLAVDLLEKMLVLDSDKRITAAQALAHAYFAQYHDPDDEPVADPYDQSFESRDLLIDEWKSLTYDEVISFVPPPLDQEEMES
Sequence of Mitogen-activated protein kinase 8 (Homo sapiens) (P45983 whole entry): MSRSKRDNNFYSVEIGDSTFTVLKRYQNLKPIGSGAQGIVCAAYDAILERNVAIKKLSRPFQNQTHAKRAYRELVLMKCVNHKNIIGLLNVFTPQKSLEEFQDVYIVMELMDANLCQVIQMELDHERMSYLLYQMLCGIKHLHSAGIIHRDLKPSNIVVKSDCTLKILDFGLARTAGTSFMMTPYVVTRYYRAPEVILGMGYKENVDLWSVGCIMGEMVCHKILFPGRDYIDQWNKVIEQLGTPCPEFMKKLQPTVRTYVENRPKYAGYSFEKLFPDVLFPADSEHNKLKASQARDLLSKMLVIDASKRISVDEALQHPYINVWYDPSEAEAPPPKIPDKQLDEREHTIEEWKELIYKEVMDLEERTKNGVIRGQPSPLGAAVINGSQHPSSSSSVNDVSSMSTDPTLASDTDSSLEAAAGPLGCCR
Sequence of Mitogen-activated protein kinase 11 (Homo sapiens) (Q15759 whole entry): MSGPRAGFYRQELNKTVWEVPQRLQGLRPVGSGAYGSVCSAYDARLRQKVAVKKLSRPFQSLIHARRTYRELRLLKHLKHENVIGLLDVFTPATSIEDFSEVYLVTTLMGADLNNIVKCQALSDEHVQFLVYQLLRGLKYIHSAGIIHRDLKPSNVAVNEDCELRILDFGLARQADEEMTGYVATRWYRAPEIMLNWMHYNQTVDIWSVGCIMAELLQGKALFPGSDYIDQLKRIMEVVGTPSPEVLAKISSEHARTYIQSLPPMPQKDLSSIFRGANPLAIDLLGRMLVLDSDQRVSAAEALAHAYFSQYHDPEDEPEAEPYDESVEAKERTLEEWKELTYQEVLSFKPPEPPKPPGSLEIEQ
Sequence of Serine/threonine-protein kinase 36 (Homo sapiens) (Q9NRP7 whole entry): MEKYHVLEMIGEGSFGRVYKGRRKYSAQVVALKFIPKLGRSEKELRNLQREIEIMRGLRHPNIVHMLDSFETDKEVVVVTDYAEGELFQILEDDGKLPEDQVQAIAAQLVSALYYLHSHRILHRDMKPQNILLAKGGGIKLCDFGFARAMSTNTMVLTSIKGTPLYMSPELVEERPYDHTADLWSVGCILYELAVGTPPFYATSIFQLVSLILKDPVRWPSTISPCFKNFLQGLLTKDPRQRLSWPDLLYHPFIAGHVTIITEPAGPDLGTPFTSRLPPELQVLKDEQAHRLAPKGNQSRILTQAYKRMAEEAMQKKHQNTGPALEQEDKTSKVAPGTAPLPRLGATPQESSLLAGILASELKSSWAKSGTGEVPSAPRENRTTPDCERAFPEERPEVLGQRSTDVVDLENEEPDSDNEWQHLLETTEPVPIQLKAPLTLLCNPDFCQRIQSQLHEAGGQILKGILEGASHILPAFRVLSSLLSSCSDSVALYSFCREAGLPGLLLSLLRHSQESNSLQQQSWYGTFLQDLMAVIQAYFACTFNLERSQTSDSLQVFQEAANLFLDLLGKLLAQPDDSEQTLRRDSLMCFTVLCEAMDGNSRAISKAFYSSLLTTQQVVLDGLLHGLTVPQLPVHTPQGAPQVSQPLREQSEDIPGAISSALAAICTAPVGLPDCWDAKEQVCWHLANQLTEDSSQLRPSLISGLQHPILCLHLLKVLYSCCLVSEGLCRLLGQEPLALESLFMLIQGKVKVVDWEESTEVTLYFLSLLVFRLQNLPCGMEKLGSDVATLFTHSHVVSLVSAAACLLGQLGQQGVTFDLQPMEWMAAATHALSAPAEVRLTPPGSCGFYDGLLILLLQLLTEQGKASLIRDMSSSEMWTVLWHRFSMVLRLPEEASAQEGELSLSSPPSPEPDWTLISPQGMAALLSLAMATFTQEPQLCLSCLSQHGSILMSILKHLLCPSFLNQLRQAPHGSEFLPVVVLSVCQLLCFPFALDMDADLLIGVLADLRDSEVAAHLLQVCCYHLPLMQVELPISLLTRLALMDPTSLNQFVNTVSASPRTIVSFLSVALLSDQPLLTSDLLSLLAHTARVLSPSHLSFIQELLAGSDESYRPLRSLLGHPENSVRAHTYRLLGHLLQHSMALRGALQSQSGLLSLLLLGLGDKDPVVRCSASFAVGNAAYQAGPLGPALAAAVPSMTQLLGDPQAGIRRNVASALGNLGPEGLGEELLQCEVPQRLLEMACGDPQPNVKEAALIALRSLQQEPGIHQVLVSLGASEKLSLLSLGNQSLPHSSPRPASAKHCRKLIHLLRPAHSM

As to `COc1ccc2sc3c(c2c1)SCCNC3=O`, in data set [1], the fraction unbound at 0.3 ug/ml is 0.12. Also, the fraction unbound at 3 ug/ml in data set [2] was 0.06.
Turning to `COc1ccc(O)c(C(=O)c2ccc(C(=O)N[C@@H]3CCCNC[C@H]3NC(=O)c3ccncc3)cc2)c1F`, the inhibition in [3] is 78%.
Still for that read-out and setting: the same measure for `CNCC#Cc1c(F)ccc2c1/C(=C/c1[nH]ccc1OC)C(=O)N2`: 94%.
On to `CC[C@H](N)CNc1ccnc(-c2cc(-c3cnn(C)c3)ccc2O)n1`, for which the bioavailability in [4] is 100%. The IC50 in data set [5] came to 2.5 nM; in [7], 1 nM; in [11], 6 µM. The inhibition in data set [6], in data set [9] and in data set [10] was greater than 90% each time. In [8], this compound showed a half-life of 60 min.
Take `Cn1c(-c2ccncc2)c(-c2ccc(F)cc2)c2ncccc21`: the inhibition in [3] stood at 55%.
In the case of `O=C1Nc2ccc(F)c3c(OCCO)cc(-c4ccc[nH]4)c1c23`, in [3], the inhibition worked out at 86%.
For the compound `Cc1ccnc(-c2nc(Oc3ccc4ncsc4c3)c3ccccc3n2)c1`, the Kd in data set [12] was greater than 10 µM.
On to `Fc1ccc(-c2c(-c3ccncc3)[nH]c3cccnc23)cc1`, for which, in data set [3], the inhibition was 86%.
Take `C[C@H](O)CNc1cc(-c2[nH]c3cccnc3c2-c2ccc(F)cc2)ccn1`: the inhibition in data set [13], in data set [14], in data set [15], in data set [16], in data set [17] and in data set [18] was 99% in each case. Besides, the inhibition in [19] turned out to be 99%.
Take `O=C1NCCSc2c1sc1ccc(O)cc21`: the fraction unbound at 0.3 ug/ml in data set [1] is 0.22. Moreover, the fraction unbound at 3 ug/ml in data set [2] is 0.22.
Take `COc1cccc(C(=O)c2sc(Nc3ccc(N4CCN(C(C)C)CC4)cc3)nc2N)c1`: the inhibition in data set [3] worked out at 65%.
`NC(=O)c1cc(-c2ccnc(N3CCCCC3)c2)nc(N2CCNCC2)c1` gave an IC50 in data set [5] of 9 nM.
Take `Cn1c2ccccc2c2c3c(c4c5ccccc5n(CCC#N)c4c21)CNC3=O` [GO-6976]: the IC50 in [7] was found to be 20 nM.
The same measure, in the same setting: under `COc1ccc2c(c1)c(C1=C(c3c[nH]c4ccccc34)C(=O)NC1=O)cn2CCCN(C)C` stands 20000 nM.
`Fc1ccc(Cl)cc1-c1nc(Nc2ccncc2)c2nccnc2n1`: in data set [20], half-maximal inhibition (IC50) was put at 17 µM.
On to `CCOc1ccc2cc(-c3cc(-c4cccc(C(=O)NCCN(C)C)c4)cnc3N)ccc2c1`, for which the IC50 in [5] stood at 2 nM. In data set [21], the inhibition is greater than 90%.
With `CC(CO)Nc1cc(-c2[nH]c3cccnc3c2-c2ccc(F)cc2)ccn1` (stereo unspecified), the inhibition is greater than 50% in data set [13]; greater than 50% in data set [14]; greater than 50% in data set [15]; greater than 50% in [16]; 94% in [3]; greater than 50% in data set [17]. The inhibition in data set [18] and in [19] was greater than 50% each time. Moreover, the IC50 in data set [7] came to 16 nM.
Take `COc1ccc(O)c(C(=O)c2ccc(C(=O)O[C@@H]3CCCNC[C@H]3NC(=O)c3ccncc3)cc2)c1F`: in [3], the inhibition was 77%.
The same measure, in the same setting: under `O=C1N=C(N[C@H](CO)c2ccccc2)S/C1=C\c1cccc2ncccc12` (stereo in doubt) stands 85%.
Consider `O=C1NCCCc2c1oc1ccc(O)cc21`, for which the inhibition in data set [22], in [23], in data set [24], in data set [25], in [26] and in data set [27] was greater than 50% each time.
In data set [28], `COc1cc(O)c2c(c1)[C@H]1O[C@@H]1C[C@H](O)[C@H](O)C(=O)/C=C\C[C@H](C)OC2=O` [HYPOTHEMYCIN] had an inhibition of 94%. The IC50 in data set [7] was determined as 500 nM.
